The values below come from patent publication EP2520566A1, “New Pharmaceutical Compounds” (Orion Corporation, priority 2011, dated 2012).

The structures appear in SMILES notation.

This test has as its target TRPA1 (Homo sapiens, UniProt O75762). The test is described as follows: Determination of TRPA1 activity in vitro (TRPA1 antagonism in vitro), procedure of Wei et al., Anesthesiology 111 (2009) 147-154. It is filed as cell-based. From the text: EXPERIMENT 1: Determination of TRPA1 activity in vitro
The illustrative examples of the present invention were screened for TRPA1 activity according to a procedure described in Wei et al., Anesthesiology 111 (2009) 147-154. Table 1. TRPA1 antagonism in vitro.

TRPA1, sequence (O75762 whole entry): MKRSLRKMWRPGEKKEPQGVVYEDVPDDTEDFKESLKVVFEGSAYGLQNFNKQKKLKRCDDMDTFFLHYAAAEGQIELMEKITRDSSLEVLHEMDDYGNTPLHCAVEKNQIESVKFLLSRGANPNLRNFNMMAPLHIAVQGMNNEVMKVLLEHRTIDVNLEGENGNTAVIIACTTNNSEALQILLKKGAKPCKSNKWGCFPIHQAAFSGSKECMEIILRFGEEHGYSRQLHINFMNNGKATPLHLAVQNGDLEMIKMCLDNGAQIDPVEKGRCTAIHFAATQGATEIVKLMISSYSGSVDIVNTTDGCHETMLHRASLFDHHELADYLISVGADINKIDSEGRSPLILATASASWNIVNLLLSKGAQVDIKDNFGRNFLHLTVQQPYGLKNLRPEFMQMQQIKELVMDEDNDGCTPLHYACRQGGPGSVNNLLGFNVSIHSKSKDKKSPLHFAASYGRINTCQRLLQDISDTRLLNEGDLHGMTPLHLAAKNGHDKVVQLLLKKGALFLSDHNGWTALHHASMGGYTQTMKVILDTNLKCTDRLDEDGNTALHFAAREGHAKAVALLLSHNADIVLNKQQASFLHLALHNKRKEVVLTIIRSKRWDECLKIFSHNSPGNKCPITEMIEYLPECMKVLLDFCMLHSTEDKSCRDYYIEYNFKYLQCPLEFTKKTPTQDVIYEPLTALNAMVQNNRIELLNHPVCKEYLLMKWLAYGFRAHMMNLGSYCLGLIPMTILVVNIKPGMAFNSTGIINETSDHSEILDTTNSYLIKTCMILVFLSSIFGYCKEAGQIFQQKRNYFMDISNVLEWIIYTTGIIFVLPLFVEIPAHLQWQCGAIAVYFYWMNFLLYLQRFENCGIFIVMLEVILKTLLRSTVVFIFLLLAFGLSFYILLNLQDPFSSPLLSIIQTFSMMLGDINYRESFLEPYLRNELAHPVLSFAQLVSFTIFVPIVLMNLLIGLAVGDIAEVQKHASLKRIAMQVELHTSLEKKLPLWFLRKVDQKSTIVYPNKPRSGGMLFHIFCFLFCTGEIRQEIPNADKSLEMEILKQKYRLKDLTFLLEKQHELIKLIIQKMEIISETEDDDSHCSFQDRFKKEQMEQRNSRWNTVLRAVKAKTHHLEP

Turning to `CCOc1cc(F)cc(CNC(=O)[C@@H]2CCCN2S(=O)(=O)c2ccc(F)cc2)c1` [Example 15, (S)-N-(3-ethoxy-5-fluorobenzyl)-1-(4-fluorophenylsulfonyl)pyrrolidine-2-carboxamide], the IC50 came out at 5.9 µM.

The molecule `COc1cc(Cl)cc(CNC(=O)[C@@H]2CCCN2S(=O)(=O)c2ccc(F)cc2)c1` [Example 16, (S)-N-(3-chloro-5-methoxybenzyl)-1-(4-fluorophenylsulfonyl) pyrrolidine-2-carboxamide] came in with a concentration for half-maximal inhibition (IC50) of 5.4 µM.

Take `O=C(NCc1ccc(C(F)(F)F)cc1)[C@@H]1CCCN1S(=O)(=O)c1ccccc1` [Example 17, (S)-1-(Phenylsulfonyl)-N-(4-(trifluoromethyl)benzyl)pyrrolidine-2-carboxamide]: the midpoint of inhibition, the IC50, lay at 13 µM.

Take `O=C(NCc1cc(F)cc(OC(F)F)c1)[C@@H]1C[C@@H](F)CN1S(=O)(=O)c1ccc(F)cc1` [Example 18, (2S,4R)-N-(3-(difluoromethoxy)-5-fluorobenzyl)-4-fluoro-1-(4-fluorophenylsulfonyl)pyrrolidine-2-carboxamide]: the IC50 amounted to 24.1 µM.

`CC(C)CSc1cc(CNC(=O)[C@@H]2CCCN2S(=O)(=O)c2ccc(F)cc2)ccn1` [Example 19, (S)-1-(4-Fluorophenylsulfonyl)-N-((2-(isobutylthio)pyridin-4-yl)methyl)pyrrolidine-2-carboxamide] returned a half-maximal inhibitory concentration (IC50) of 9.3 µM.

Take `O=C(NCc1ccc(Cl)cc1)[C@@H]1CCCN1S(=O)(=O)c1ccc(F)cc1` [Example 20, (S)-N-(4-chlorobenzyl)-1-(4-fluorophenylsulfonyl)pyrrolidine-2-carboxamide]: the IC50 was 12.5 µM.

For `CC(C)Nc1cc(CNC(=O)[C@@H]2C[C@@H](F)CN2S(=O)(=O)c2ccccc2)ccc1Cl` [Example 21, (2S,4R)-N-(4-chloro-3-(isopropylamino)benzyl)-4-fluoro-1-(phenylsulfonyl)pyrrolidine-2-carboxamide], half-maximal inhibition (IC50) was put at 15.6 µM.

`O=C(NCc1cccc(C2CC2)c1)[C@@H]1CCCN1S(=O)(=O)c1ccccc1` [Example 22, (S)-N-(3-cyclopropylbenzyl)-1-(phenylsulfonyl)pyrrolidine-2-carboxamide] returned an IC50 of 13.6 µM.

`O=C(NCc1cccc(C2CC2)c1)[C@@H]1CCCN1S(=O)(=O)c1ccc(F)cc1` [Example 23, (S)-N-(3-cyclopropylbenzyl)-1-(4-fluorophenylsulfonyl)pyrrolidine-2-carboxamide] returned a concentration for half-maximal inhibition (IC50) of 7.7 µM.

`O=C(NCc1cccc(C(F)(F)F)c1)[C@@H]1CCCN1S(=O)(=O)c1ccccc1` [Example 24, (S)-1-(Phenylsulfonyl)-N-(3-(trifluoromethyl)benzyl)pyrrolidine-2-carboxamide] displayed an IC50 of 17 µM.

`O=C(NCc1cccc(S(F)(F)(F)(F)F)c1)[C@@H]1CCCN1S(=O)(=O)c1ccccc1` [Example 25] yielded an IC50 of 6.7 µM.

On to `O=C(NCc1ccnc(OCCC(F)(F)F)c1)[C@@H]1C[C@@H](F)CN1S(=O)(=O)c1ccc(F)cc1` [Example 26, (2S,4R)-4-Fluoro-1-(4-fluorophenylsulfonyl)-N-((2-(3,3,3-trifluoropropoxy)pyridin-4-yl)methyl)pyrrolidine-2-carboxamide], for which the IC50 was 37 µM.

The molecule `O=C(NCc1cc(C(F)(F)F)ccn1)[C@@H]1CCCN1S(=O)(=O)c1ccc(F)cc1` [Example 27, (S)-1-(4-Fluorophenylsulfonyl)-N-((4-(trifluoromethyl)pyridin-2-yl)methyl)pyrrolidine-2-carboxamide] had a half-maximal inhibitory concentration (IC50) of 33.8 µM.

In the case of `CC(C)CCOc1cncc(CNC(=O)[C@@H]2CCCN2S(=O)(=O)c2ccc(F)cc2)c1` [Example 28, (S)-1-(4-Fluorophenylsulfonyl)-N-((5-(isopentyloxy)pyridin-3-yl)methyl) pyrrolidine-2-carboxamide], the IC50 amounted to 4.1 µM.

`CC(C)CCOc1cncc(CNC(=O)[C@@H]2C[C@@H](F)CN2S(=O)(=O)c2ccc(F)cc2)c1` [Example 29, (2S,4R)-4-Fluoro-1-(4-fluorophenylsulfonyl)-N-((5-(isopentyloxy)pyridine-3-yl)methyl)pyrrolidine-2-carboxamide] returned a half-inhibitory concentration (IC50) of 13.6 µM.

For the molecule `CC(C)COc1ccnc(CNC(=O)[C@@H]2CCCN2S(=O)(=O)c2ccc(F)cc2)c1` [Example 30, (S)-1-(4-Fluorophenylsulfonyl)-N-((4-isobutoxypyridin-2-yl)methyl) pyrrolidine-2-carboxamide], the half-maximal inhibitory concentration (IC50) worked out at 10.5 µM.

As for `CC(C)CSc1ccnc(CNC(=O)[C@@H]2CCCN2S(=O)(=O)c2ccc(F)cc2)c1` [Example 31, (S)-1-(4-Fluorophenylsulfonyl)-N-((4-(isobutylthio)pyridin-2-yl)methyl) pyrrolidine-2-carboxamide], it took 8.5 µM to reach half-maximal inhibition (IC50).

Molecule `O=C(NCc1cc(OCC(F)(F)F)ccn1)[C@@H]1CCCN1S(=O)(=O)c1ccc(F)c(F)c1` [Example 32, (S)-1-(3,4-Difluorophenylsulfonyl)-N-((4-(2,2,2-trifluoroethoxy)pyridin-2-yl)methyl)pyrrolidine-2-carboxamide] gave a half-inhibitory concentration (IC50) of 12.5 µM.

`O=C(NCc1cc(OCC(F)(F)F)ccn1)[C@@H]1CCCN1S(=O)(=O)c1cc(F)cc(F)c1` [Example 33, (S)-1-(3,5-Difluorophenylsulfonyl)-N-((4-(2,2,2-trifluoroethoxy)pyridine-2-yl)methyl)pyrrolidine-2-carboxamide]: the concentration for half-maximal inhibition (IC50) turned out to be 18.5 µM.

For `CCCc1cc(CNC(=O)[C@@H]2C[C@@H](F)CN2S(=O)(=O)c2ccccc2)ccc1C#N` [Example 34, (2S,4R)-N-(4-cyano-3-propylbenzyl)-4-fluoro-1-(phenylsulfonyl) pyrrolidine-2-carboxamide], the IC50 worked out at 12.6 µM.

Regarding `CC(C)c1cc(CNC(=O)[C@@H]2CCCN2S(=O)(=O)c2ccccc2)ccc1C#N` [Example 35, (S)-N-(4-cyano-3-isopropylbenzyl)-1-(phenylsulfonyl)pyrrolidine-2-carboxamide], the IC50 stood at 9.3 µM.

As to `CC(C)CSc1cc(CNC(=O)[C@@H]2C[C@@H](F)CN2S(=O)(=O)c2ccc(F)cc2)ccn1` [Example 36, (2S,4R)-4-Fluoro-1-(4-fluorophenylsulfonyl)-N-((2-(isobutylthio)pyridin-4-yl)methyl)pyrrolidine-2-carboxamide], half-maximal inhibition (IC50) required 17.4 µM.

The molecule `O=C(NCc1ccc(Br)cc1)[C@@H]1CCCN1S(=O)(=O)c1ccc(F)cc1` [Example 37, (S)-N-(4-bromobenzyl)-1-(4-fluorophenylsulfonyl)pyrrolidine-2-carboxamide] had an IC50 of 11.6 µM.

The molecule `CCc1ccc(CNC(=O)[C@@H]2CCCN2S(=O)(=O)c2ccc(F)cc2)cc1` [Example 38, (S)-N-(4-ethylbenzyl)-1-(4-fluorophenylsulfonyl)pyrrolidine-2-carboxamide] registered a 50% inhibitory concentration (IC50) of 16.8 µM.

Molecule `CCCNc1cccc(CNC(=O)[C@@H]2CCCN2S(=O)(=O)c2ccc(F)cc2)c1` [Example 39, (S)-1-(4-Fluorophenylsulfonyl)-N-(3-(propylamino)benzyl)pyrrolidine-2-carboxamide] gave an IC50 of 14.1 µM.
